Patent US9475808B2, “Inhibitor compounds of phosphodiesterase type 10A” (AbbVie Deutschland GmbH & Co. KG, priority 2013, dated 2016)

Tests used:
[1] = Determination of the microsomal half-life / microsomal clearance, rat liver microsomes; conditions: 0.5 μM test substance, 0.25 mg microsomal protein/ml, pH 7.4, 37° C., NADPH
Method: (§1) The test substances were incubated in a concentration of 0.5 μM as follows:
(§2) 0.5 μM test substance are preincubated together with liver microsomes from different species (from rat, human or other species) (0.25 mg of microsomal protein/ml) in 0.05 M potassium phosphate buffer of pH 7.4 in microtiter plates at 37° C. for 5 min. The reaction is started by adding NADPH (1 mg/mL). After 0, 5, 10, 15, 20 and 30 min, 50 μl aliquots are removed, and the reaction is immediately stopped and cooled with the same volume of acetonitrile. The samples are frozen until analyzed. The remaining concentration of undegraded test substance is determined by MSMS. The half-life (T½) is determined from the gradient of the signal of test substance/unit time plot, it being possible to calculate the half-life of the test substance, assuming first order kinetics, from the decrease in the concentration of the compound with time. The microsomal clearance (mCl) is calculated from mCl=ln 2/T½/(content of microsomal protein in mg/ml)×1000 [ml/min/mg]

[2] = Determination of the microsomal half-life / microsomal clearance, human liver microsomes; conditions: 0.5 μM test substance, 0.25 mg microsomal protein/ml, pH 7.4, 37° C., NADPH
Method: as §1, §2

[3] = biological target: PDE10A (UniProt Q9Y233); test: Measurement of PDE activity (HTRF cAMP assay, recombinant enzyme); assay type: biochemical; conditions: 20 nM cyclic nucleotide substrate, 60 minutes at 29 C
Method: The recombinant PDE proteins are used in in vitro enzymatic reaction for measurement of PDE activity. These recombinant proteins, including PDE10A (human, rat and mouse PDE10) and isoforms of PDEs 1, 3, 4, and 5, were purchased from commercial vendor BPS Bioscience. The enzymatic activity of PDEs was determined by cAMP measurement kit from CisBio (IBA) using HTRF technology.
The PDE enzymatic reaction was carried out in assay buffer (20 mM Tris-HCl pH7.5, 10 mM MgCl2, 0.1% bovine serum albumin) containing enzyme and substrate. The PDE enzymes concentration ranged from 10 pM-250 pM, depending on each enzyme's specific activity. The substrate cyclic nucleotide (cAMP or cGMP) concentration used in the assay was 20 nM for PDE10, and 100 nM for other PDEs. The inhibitory effect of compound was determined by incubating various concentration of inhibitor in the enzymatic assay. Typically, compound was serial diluted in DMSO then further diluted in assay buffer. Next, the compound at varying concentration was mixed with PDE enzyme. The reaction was initiated by addition of cyclic nucleotide substrate, and incubated for 60 minutes at 29 C. The reaction was stopped by addition of lysis buffer from assay kit. The cAMP-d2 and anti-cAMP cryptate in the lysis buffer detected the level of cAMP left from the PDE hydrolysis reaction. The PDE activity is reversely correlated with the amount of cAMP left in the reaction and can be converted to the percent activity of an uninhibited control (100%). Thus, IC50 value of inhibitor can be obtained by plotting inhibitor concentration against PDE activity at that concentration.

[4] = test system: rats; conditions: cited from earlier work
[5] = test system: rats; conditions: cited from earlier work; remark: listed apart in the source

Row | Structure (SMILES) | Rat mCl [1] | Human mCl [2] | IC50 [3] | catalepsy on its own ([4]; alone) | cataleptic effect of the D2 receptor antagonist haloperidol ([4]; with haloperidol) | hyperactivity induced by PCP ([5]; PCP-induced) | reduction of amphetamine-induced hyperactivity ([5]; amphetamine-induced)
1 | Cn1cc2c(c(N3CCOCC3)c1=O)C(=O)N(CCc1cn3ccccc3n1)C2 [Example 22, 2-(2-Imidazo[1,2-a]pyridin-2-yl-ethyl)-5-methyl-7-morpholin-4-yl-3,5-dihydro-2H-pyrrolo[3,4-c]pyridine-1,6-dione] | ++ (++: <100 μl min^−1 mg^−1) | +++ (+++ <10 μl min^−1 mg^−1) | < 100 nM |  |  |  | 
2 | Cn1cc2c(c(N3CCOCC3)c1=O)C(=O)N(CCc1nc3ccccn3n1)C2 [Example 24, 5-Methyl-7-morpholin-4-yl-2-(2-[1,2,4]triazolo[1,5-a]pyridin-2-yl-ethyl)-3,5-dihydro-2H-pyrrolo[3,4-c]pyridine-1,6-dione] | ++ (++: <100 μl min^−1 mg^−1) | ++ (++: <100 μl min^−1 mg^−1) | > 500 nM |  |  |  | 
3 | Cn1cc2c(c(-c3cccnc3)c1=O)C(=O)N(CCc1nc3ccccn3n1)C2 [Example 26, 5-Methyl-7-pyridin-3-yl-2-(2-[1,2,4]triazolo[1,5-a]pyridin-2-yl-ethyl)-3,5-dihydro-2H-pyrrolo[3,4-c]pyridine-1,6-dione] | ++ (++: <100 μl min^−1 mg^−1) | +++ (+++ <10 μl min^−1 mg^−1) | > 500 nM |  |  |  | 
4 | Cn1cc2c(c(-c3cncnc3)c1=O)C(=O)N(CCc1ccc3ccccc3n1)C2 [Example 28, 5-Methyl-7-pyrimidin-5-yl-2-(2-quinolin-2-yl-ethyl)-3,5-dihydro-2H-pyrrolo[3,4-c]pyridine-1,6-dione] | ++ (++: <100 μl min^−1 mg^−1) | ++ (++: <100 μl min^−1 mg^−1) | 100 to 200 nM |  |  |  | 
5 | COc1ccc(-c2c3c(cn(C)c2=O)CN(CCc2ccc4ccccc4n2)C3=O)cc1 [Example 31, 7-(4-Methoxy-phenyl)-5-methyl-2-(2-quinolin-2-yl-ethyl)-3,5-dihydro-2H-pyrrolo[3,4-c]pyridine-1,6-dione] | ++ (++: <100 μl min^−1 mg^−1) | ++ (++: <100 μl min^−1 mg^−1) | 100 to 200 nM |  |  |  | 
6 | Cn1cc2c(c(N3CCOCC3)c1=O)C(=O)N(CC(F)(F)c1ccc3ccccc3n1)C2 [Example 34, 2-(2,2-Difluoro-2-quinolin-2-yl-ethyl)-5-methyl-7-morpholin-4-yl-3,5-dihydro-2H-pyrrolo[3,4-c]pyridine-1,6-dione] | ++ (++: <100 μl min^−1 mg^−1) | ++ (++: <100 μl min^−1 mg^−1) | < 100 nM |  |  |  | 
7 | COc1ccc(Cc2nccc3cc(OC)c(OC)cc23)cc1OC [Papaverine, papaverine] |  |  |  | did not cause catalepsy on its own | potentiated the cataleptic effect | reduced hyperactivity | insignificant

Second part, led by results:

Row | Rat mCl [1] | Human mCl [2] | IC50 [3] | Structure (SMILES) | catalepsy on its own ([4]; alone) | cataleptic effect of the D2 receptor antagonist haloperidol ([4]; with haloperidol) | hyperactivity induced by PCP ([5]; PCP-induced) | reduction of amphetamine-induced hyperactivity ([5]; amphetamine-induced)
8 | +++ (+++ <10 μl min^−1 mg^−1) | +++ (+++ <10 μl min^−1 mg^−1) | > 500 nM | Cn1cc2c(c(N3CCOCC3)c1=O)C(=O)N(CCc1nc3n(n1)CCCC3)C2 [Example 25, 5-Methyl-7-morpholin-4-yl-2-[2-(5,6,7,8-tetrahydro-[1,2,4]triazolo[1,5-a]pyridin-2-yl)-ethyl]-3,5-dihydro-2H-pyrrolo[3,4-c]pyridine-1,6-dione] |  |  |  | 
9 | ++ (++: <100 μl min^−1 mg^−1) | +++ (+++ <10 μl min^−1 mg^−1) | 100 to 200 nM | Cn1cc2c(c(-c3ccc(F)cc3)c1=O)C(=O)N(CCc1ccc3ccccc3n1)C2 [Example 27, 7-(4-Fluoro-phenyl)-5-methyl-2-(2-quinolin-2-yl-ethyl)-3,5-dihydro-2H-pyrrolo[3,4-c]pyridine-1,6-dione] |  |  |  | 
10 | ++ (++: <100 μl min^−1 mg^−1) | +++ (+++ <10 μl min^−1 mg^−1) | > 500 nM | Cn1cc2c(c(-c3cn[nH]c3)c1=O)C(=O)N(CCc1ccc3ccccc3n1)C2 [Example 29, 5-Methyl-7-(1H-pyrazol-4-yl)-2-(2-quinolin-2-yl-ethyl)-3,5-dihydro-2H-pyrrolo[3,4-c]pyridine-1,6-dione] |  |  |  | 
11 | +++ (+++ <10 μl min^−1 mg^−1) | +++ (+++ <10 μl min^−1 mg^−1) | > 500 nM | Cn1cc2c(c(-c3ccncc3)c1=O)C(=O)N(CCc1nc3ccccc3s1)C2 [Example 32, 2-[2-(1,3-benzothiazol-2-yl)ethyl]-5-methyl-7-(4-pyridyl)-3,5-dihydro-2H-pyrrolo[3,4-c]pyridine-1,6-dione] |  |  |  | 
12 | +++ (+++ <10 μl min^−1 mg^−1) | +++ (+++ <10 μl min^−1 mg^−1) | 100 to 200 nM | Cn1cc2c(c(N3CCOCC3)c1=O)C(=O)N(CCc1nc3ccccc3s1)C2 [Example 33, 2-[2-(1,3-benzothiazol-2-yl)ethyl]-5-methyl-7-morpholin-4-yl-3,5-dihydro-2H-pyrrolo[3,4-c]pyridine-1,6-dione] |  |  |  | 
